# Measurements taken from patent US20170114029A1, “TREATMENT OF CHAGAS DISEASE” (UNIVERSITY OF DUNDEE, priority 2014, published 2017).
# Where two headings read alike, the source gives them in different places.
# Tested on: T. cruzi Tulahuen strain C2C4
# Test: Activity against T. cruzi (beta-galactosidase expressing parasites in L-6 cells)
# Format: cell-based, Trypanosoma cruzi
# Settings: for IC50: Trypanosoma cruzi, TULAHUEN
# Protocol: Activity against T. cruzi. Rat skeletal myoblasts (L-6 cells) were seeded in 96-well microtitre plates at 2000 cells/well in 100 μL RPMI 1640 medium with 10% FBS and 2 mM 1-glutamine. After 24 h the medium was removed and replaced by 100 μl per well containing 5000 trypomastigote forms of T. cruzi Tulahuen strain C2C4 containing the […] (Lac Z) gene (Buckner et al. 1996). After 48 h the medium was removed from the wells and replaced by 100 μl fresh medium with or without a serial drug dilution of eleven 3-fold dilution steps covering a range from 100 to 0.002 μg/ml. After 96 h of incubation the plates were inspected under an inverted microscope to assure growth of the controls and sterility. Then the substrate CPRG/Nonidet (50 μl) was added to all wells. A color reaction developed within 2-6 h and could be read photometrically at 540 nm. Data were analyzed with the graphic programme Softmax Pro (Molecular Devices), which calculated IC50 values by linear regression (Huber 1993) from the sigmoidal dose inhibition curves. Benznidazole is used as control (IC50 0.5±0.2 ug/ml). • Buckner, F. S., C. L. Verlinde, A. C. La Flamme, and W. C. Van Voorhis. 1996. Efficient technique for screening drugs for activity against Trypanosoma cruzi using parasites expressing beta-galactosidase, p. 2592-2597, vol. 40. • Huber, W. Koella, J. C. 1993. A comparison of the three methods of estimating EC50 in studies of drug resistance of malaria parasites. Acta Trop. 55, 257-261.
# [1] = L6, in Rattus norvegicus, 96 h, trypomastigotes in rat skeletal myoblasts (L-6 cells), 96 h incubation, CPRG/Nonidet read at 540 nm, read-out: Activity (IC50)
structure (smiles),measurement,setting,value
"CC(C)(C)C1CCC(n2c(=O)[nH]c3ccc(N)cc3c2=O)CC1 (racemic) [23b (rac), 6-amino-3-(4-tert-butyl-cyclohexyl)-1H-quinazoline-2,4-dione]",IC50,[1],0.028 µg/mL
"CCC1CCC(n2c(=O)[nH]c3ccc(N)cc3c2=O)CC1 (racemic) [24 (rac), 6-Amino-3-(4-ethyl-cyclohexyl)-1H-quinazoline-2,4-dione]",IC50,[1],0.022 µg/mL
"CC(C)C1CCC(n2c(=O)[nH]c3ccc(N)cc3c2=O)CC1 (racemic) [25 (rac), 6-Amino-3-(4-isopropylcyclohexyl)-1H-quinazoline-2,4-dione]",IC50,[1],0.028 µg/mL
"CC(C)(C)[C@H]1CC[C@@H](n2c(=O)[nH]c3ccc(N)cc3c2=O)CC1 [23b (cis), 6-amino-3-(cis-4-tert-butyl-cyclohexyl)-1H-quinazoline-2,4-dione]",IC50,[1],0.007 µg/mL
"CC(C)(C)[C@H]1CC[C@H](n2c(=O)[nH]c3ccc(N)cc3c2=O)CC1 [23b (trans), 6-amino-3-(trans-4-tert-butyl-cyclohexyl)-1H-quinazoline-2,4-dione]",IC50,[1],0.03 µg/mL
"CC[C@H]1CC[C@@H](n2c(=O)[nH]c3ccc(N)cc3c2=O)CC1 [24 (cis), 6-Amino-3-(cis-4-ethyl-cyclohexyl)-1H-quinazoline-2,4-dione]",IC50,[1],0.096 µg/mL
"CC[C@H]1CC[C@H](n2c(=O)[nH]c3ccc(N)cc3c2=O)CC1 [24 (trans), 6-Amino-3-(trans-4-ethyl-cyclohexyl)-1H-quinazoline-2,4-dione]",IC50,[1],0.035 µg/mL
"CC(C)[C@H]1CC[C@H](n2c(=O)[nH]c3ccc(N)cc3c2=O)CC1 [25 (trans), 6-Amino-3-((1 r,4r)-4-isopropylcyclohexyl)quinazoline-2,4(1H,3H)-dione]",Activity (IC50),"trypomastigotes in rat skeletal myoblasts (L-6 cells), 96 h incubation, CPRG/Nonidet read at 540 nm",0.008 µg/mL
"O=C(Cn1ccnc1[N+](=O)[O-])NCc1ccccc1 [Benznidazole, reference compound]",IC50,"L6, Benznidazole used as control, same assay, read-out: IC50 of control",0.5 ± 0.2 µg/mL
"CC(=O)Nc1ccc2[nH]c(=O)n(CCC3=CCCCC3)c(=O)c2c1 [Example 1c, N-[3-(2-Cyclohex-1-enyl-ethyl)-2,4-dioxo-1,2,3,4-tetrahydro-quinazolin-6-yl]-acetamide]",IC50,[1],0.692 µg/mL
"CC(=O)Nc1ccc2[nH]c(=O)n([C@H](C)C3CCCCC3)c(=O)c2c1 [Example 2, (R)—N-(3-(1-cyclohexylethyl)-2,4-dioxo-1,2,3,4-tetrahydroquinazolin-6-yl)acetamide]",IC50,[1],0.724 µg/mL
"CC(=O)Nc1ccc2[nH]c(=O)n(CCC3CCCCC3)c(=O)c2c1 [Example 3, N-[3-(2-Cyclohexylethyl)-2,4-dioxo-1,2,3,4-tetrahydroquinazolin-6-yl]acetamide]",IC50,[1],0.162 µg/mL
"CC(=O)Nc1ccc2[nH]c(=O)n(CCC(C)C)c(=O)c2c1 [Example 4, N-(3-Isopentyl-2,4-dioxo-1,2,3,4-tetrahydroquinazolin-6-yl)acetamide]",IC50,[1],2.81 µg/mL
"CC(=O)Nc1ccc2[nH]c(=O)n(CCCC3CCCCC3)c(=O)c2c1 [Example 5, N-[3-(3-Cyclohexyl-propyl)-2,4-dioxo-1,2,3,4-tetrahydro-quinazolin-6-yl]-acetamide]",IC50,[1],0.163 µg/mL
"COCCn1c(=O)[nH]c2ccc(NC(C)=O)cc2c1=O [Example 6, N-(3-(2-methoxyethyl)-2,4-dioxo-1,2,3,4-tetrahydroquinazolin-6-yl)acetamide]",IC50,[1],9.62 µg/mL
"CC(=O)Nc1ccc2[nH]c(=O)n(C(CC3CCCCC3)C(N)=O)c(=O)c2c1 (centres unmarked) [Example 7, 2-(6-Acetamido-2,4-dioxo-1,4-dihydroquinazolin-3(2H)-yl)-3-cyclohexylpropanamide]",IC50,[1],63.6 µg/mL
"Nc1ccc2[nH]c(=O)n(CCC3CCCCC3)c(=O)c2c1 [Example 9, 6-Amino-3-(2-cyclohexylethyl)quinazoline-2,4(1H,3H)-dione]",IC50,[1],0.339 µg/mL
"CC(=O)N(C)c1ccc2c(c1)c(=O)n(CCC1CCCCC1)c(=O)n2C [Example 11, N-(3-(2-cyclohexylethyl)-1-methyl-2,4-dioxo-1,2,3,4-tetrahydroquinazolin-6-yl)-N-methylacetamide]",IC50,[1],6.44 µg/mL
"CCNc1ccc2c(c1)c(=O)n(CCC1CCCCC1)c(=O)n2CC [Example 12b, 3-(2-cyclohexylethyl)-1-ethyl-6-(ethylamino)quinazoline-2,4(1H,3H)-dione]",IC50,[1],7.7 µg/mL
"CCOC(=O)Nc1ccc2c(c1)c(=O)n(CCC1CCCCC1)c(=O)n2CC [Example 13c, Ethyl (3-(2-cyclohexylethyl)-1-ethyl-2,4-dioxo-1,2,3,4-tetrahydroquinazolin-6-yl)carbamate]",IC50,[1],5.23 µg/mL
"O=C(Nc1ccc2[nH]c(=O)n(CCC3CCCCC3)c(=O)c2c1)c1ccccc1 [Example 14c, N-(3-(2-Cyclohexylethyl)-2,4-dioxo-1,2,3,4-tetrahydroquinazolin-6-yl)benzamide]",IC50,[1],5.88 µg/mL
"CC(C)(C)C(=O)Nc1ccc2[nH]c(=O)n(CCC3CCCCC3)c(=O)c2c1 [Example 15b, N-(3-(2-cyclohexylethyl)-2,4-dioxo-1,2,3,4-tetrahydroquinazolin-6-yl)pivalamide]",IC50,[1],2.64 µg/mL
"Cc1noc(C)c1-c1ccc2[nH]c(=O)n(CCC3CCCCC3)c(=O)c2c1 [Example 16c, 3-(2-Cyclohexylethyl)-6-(3,5-dimethylisoxazol-4-yl)quinazoline-2,4(1H,3H)-dione]",IC50,[1],11.5 µg/mL
"O=c1[nH]c2ccc(-c3cccnc3)cc2c(=O)n1CCC1CCCCC1 [Example 17, 3-(2-Cyclohexylethyl)-6-(pyridin-3-yl)quinazoline-2,4(1H,3H)-dione]",IC50,[1],0.655 µg/mL
"O=c1[nH]c2ccc(-c3cncnc3)cc2c(=O)n1CCC1CCCCC1 [Example 18, 3-(2-Cyclohexylethyl)-6-(pyrimidin-5-yl)quinazoline-2,4(1H,3H)-dione]",IC50,[1],4.93 µg/mL
"O=c1[nH]c2ccc(-c3ccncc3)cc2c(=O)n1CCC1CCCCC1 [Example 19, 3-(2-Cyclohexylethyl)-6-(pyridin-4-yl)quinazoline-2,4(1H,3H)-dione]",IC50,[1],0.605 µg/mL
"CC(C)(C)C1CCC(n2c(=O)[nH]c3ccc(-c4ccncc4)cc3c2=O)CC1 (centres unmarked) [Example 21c, 3-(4-(tert-butyl)cyclohexyl)-6-(pyridin-4-yl)quinazoline-2,4(1H,3H)-dione]",IC50,[1],0.892 µg/mL
"CC(C)(C)C1CCC(n2c(=O)[nH]c3ccc(-c4cccnc4)cc3c2=O)CC1 (centres unmarked) [Example 22, 3-(4-(tert-butyl)cyclohexyl)-6-(pyridin-3-yl)quinazoline-2,4(1H,3H)-dione]",IC50,[1],2.63 µg/mL
"CC(C)(C)[C@H]1CC[C@H](n2c(=O)[nH]c3ncc(N)cc3c2=O)CC1 [Example 26e, 6-Amino-3-(trans-4-tert-butyl-cyclohexyl)-1H-pyrido[2,3-d]pyrimidine-2,4-dione]",IC50,[1],0.209 µg/mL
"CC(C)(C)[C@H]1CC[C@@H](n2c(=O)[nH]c3ncc(N)cc3c2=O)CC1 [Example 27, 6-Amino-3-((1 S,4S)-4-(tert-butyl)-cyclohexyl)pyrido[2,3-d]pyrimidine-2,4(1H.3H)-dione]",IC50,[1],0.289 µg/mL
"CC(=O)Nc1cnc2[nH]c(=O)n([C@H]3CC[C@H](C(C)(C)C)CC3)c(=O)c2c1 [Example 33, N-[3-(trans-4-tert-Butyl-cyclohexyl)-2,4-dioxo-1,2,3,4-tetrahydro-pyrido[2,3-d]pyrimidin-6-yl]-acetamide]",IC50,[1],0.196 µg/mL
"CC(=O)Nc1cnc2[nH]c(=O)n([C@H]3CC[C@@H](C(C)(C)C)CC3)c(=O)c2c1 [Example 34, N-[3-(cis-4-tert-Butyl-cyclohexyl)-2,4-dioxo-1,2,3,4-tetrahydro-pyrido[2,3-d]pyrimidin-6-yl)-acetamide]",IC50,[1],0.36 µg/mL
